The results in this text go back to patent US7208500B2, “Thienopyridine-phenylacetamides and their derivatives useful as new anti-angiogenic agents” (Agouron Pharmaceuticals, Inc., priority 2003, dated 2007).

One may read the IC50 as the point on the concentration scale where inhibition reaches its midpoint. A word on the Ki: it is a measure of affinity in units of concentration, obtained from inhibition or displacement. Lower therefore signals a stronger hold on the target.

Where only a bound is given, the exact number is not on record here.

Assay [1] deals with T1, FGF-R1 intracellular kinase domain (Homo sapiens, UniProt P11362, C488A/C584S/L457V).
T1 construct: starting from the endogenous methionine residue 456 to glutamate 766; made in house; host or cells: baculovirus vector expression system
Briefly: FGF-R spectrophotometric assay. It counts as biochemical. Conditions: 50 nM test compound; read-out: FGF-P (% inh @ 50 nM). As for the experimental part:
The intracellular kinase domain of human FGF-R1 was expressed using the baculovirus vector expression system starting from the endogenous methionine residue 456 to glutamate 766, according to the residue numbering system of Mohammadi et al., Mol. Cell. Biol., 16, 977–989 (1996). In addition, the construct also has the following 3 amino acid substitutions: L457V, C488A, and C584S.
The spectrophotometric assay was carried out as described above for VEGF-R2, except for the following changes in concentration: FGF-R=50 nM, ATP=2 mM, and poly(E4Y1)=15 mM.

For assay [2], the system named is human umbilical vein endothelial cells (HUVEC). Briefly: HUVEC + VEGF proliferation assay. Type of assay: cell-based. Conditions: VEGF-stimulated proliferation, final VEGF 6 ng/mL, 72 hours, MTT. As for the experimental part:
This assay determines the ability of a test compound to inhibit the growth factor-stimulated proliferation of human umbilical vein endothelial cells (“HUVEC”). HUVEC cells (passage 3–4, Clonetics, Corp.) were thawed into EGM2 culture medium (Clonetics Corp) in T75 flasks. Fresh EGM2 medium was added to the flasks 24 hours later. Four or five days later, cells were exposed to another culture medium (F12K medium supplemented with 10% fetal bovine serum (FBS), […] endothelial cell growth supplement (ECGS), and 0.1 mg/mL heparin). Exponentially-growing HUVEC cells were used in experiments thereafter. Ten to twelve thousand HUVEC cells were plated in 96-well dishes in […] of rich, culture medium (described above). The cells were allowed to attach for 24 hours in this medium. The medium was then removed by aspiration and […] of starvation media (F12K+1% FBS) was added to each well. After 24 hours, […] of test agent dissolved in 1% DMSO in starvation medium or this vehicle alone was added into each treatment well; the final DMSO concentration was 0.1%. One hour later, […] of VEGF (30 ng/mL) in starvation media was added to all wells except those containing untreated controls; the final VEGF concentration was 6 ng/mL. Cellular proliferation was quantified 72 hours later by MTT dye reduction, at which time cells were exposed for 4 hours MTT (Promega Corp.). Dye reduction was stopped by addition of a stop solution (Promega Corp.) and absorbance at 595 nm was determined on a 96-well spectrophotometer plate reader.

The target of assay [3] is T2, unphosphorylated VEGF-R2D50 (FLVK), cytosolic domain of human VEGF-R2 (Homo sapiens, UniProt P35968, DEL940-989/E990V).
T2 construct: VEGF-R2D50 contains residues 806–939 and 990–1171; made in house; host or cells: baculovirus/insect cell system
Briefly: VEGF-R2 coupled spectrophotometric assay (FLVK). Type of assay: biochemical. An excerpt:
This construct determines the ability of a test compound to inhibit tyrosine kinase activity. A construct (VEGF-R2D50) of the cytosolic domain of human vascular endothelial growth factor receptor 2 (VEGF-R2) lacking the 50 central residues of the 68 residues of the kinase insert domain was expressed in a baculovirus/insect cell system. Of the 1356 residues of full-length VEGF-R2, VEGF-R2D50 contains residues 806–939 and 990–1171, and also one point mutation (E990V) within the kinase insert domain relative to wild-type VEGF-R2. Autophosphorylation of the purified construct was performed by incubation of the enzyme at a concentration of […] in the presence of 3 mM ATP and 40 mM MgCl2 in 100 mM HEPES, pH 7.5, containing 5% glycerol and 5 mM DTT, at 4° C. for 2 h. […] See Parast et al., Biochemistry, 37, 16788–16801 (1998).
The production of ADP from ATP that accompanies phosphoryl transfer was coupled to oxidation of NADH using phosphoenolpyruvate (PEP) and a system having pyruvate kinase (PK) and lactic dehydrogenase (LDH). The oxidation of NADH was monitored by following the decrease of absorbance at 340 nm (e340=6.22 cm^−1 mM^−1) using a Beckman DU 650 spectrophotometer. Assay conditions for phosphorylated VEGF-R2D50 (indicated as FLVK-P in the tables below) were the following: 1 mM PEP; […]; 50 units of LDH/mL; 20 units of PK/mL; 5 mM DTT; 5.1 mM poly(E4Y1); 1 mM ATP; and 25 mM MgCl2 in 200 mM HEPES, pH 7.5. Assay conditions for unphosphorylated VEGF-R2D50 (indicated as FLVK in the tables) were the following: 1 mM PEP; […]; 50 units of LDH/mL; 20 units of PK/mL; 5 mM DTT; 20 mM poly(E4Y1); 3 mM ATP; and 60 mM MgCl2 and 2 mM MnCl2 in 200 mM HEPES, pH 7.5. Assays were initiated with 5 to 40 nM of enzyme. Ki values were determined by measuring enzyme activity in the presence of varying concentrations of test compounds. The percent inhibition at 50 nm (% inhibition@50 nm) was determined by linear least-squares regression analysis of absorpbance as a function of time. The binding inhibitions were fitted to equation as described by Morrison. The data were analyzed using Enzyme Kinetic and Kaleidagraph software.

T2 sequence (P35968 with tags, fused parts or gaps DEL940-989/E990V limits assumed): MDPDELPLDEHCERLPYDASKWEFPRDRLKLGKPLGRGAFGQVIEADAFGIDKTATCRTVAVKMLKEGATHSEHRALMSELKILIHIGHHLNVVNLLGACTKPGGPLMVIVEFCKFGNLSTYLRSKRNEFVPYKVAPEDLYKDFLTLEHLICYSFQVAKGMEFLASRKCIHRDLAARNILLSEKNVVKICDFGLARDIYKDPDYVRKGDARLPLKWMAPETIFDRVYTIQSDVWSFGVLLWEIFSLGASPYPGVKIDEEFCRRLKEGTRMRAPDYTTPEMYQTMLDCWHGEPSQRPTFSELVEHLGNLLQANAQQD
T1 sequence (P11362 456-766 L457V/C488A/C584S): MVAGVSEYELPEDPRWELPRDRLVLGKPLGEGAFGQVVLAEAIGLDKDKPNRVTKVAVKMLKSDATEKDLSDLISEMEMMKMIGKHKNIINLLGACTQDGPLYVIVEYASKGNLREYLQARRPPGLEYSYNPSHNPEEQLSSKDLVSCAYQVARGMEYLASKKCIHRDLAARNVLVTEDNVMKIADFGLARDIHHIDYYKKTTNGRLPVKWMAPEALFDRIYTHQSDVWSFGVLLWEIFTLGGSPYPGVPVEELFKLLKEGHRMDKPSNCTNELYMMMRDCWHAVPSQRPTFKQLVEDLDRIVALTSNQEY

For the compound `Cc1cc(C)nc(NC(=O)Cc2ccc(Oc3ccnc4cc(C(=O)N5C[C@@H](O)[C@@H](O)C5)sc34)cc2)c1` [Example 3], in assay [1], the inhibition at 0.05 µM was in the range of 0 to 5%. For the same compound, the IC50 in assay [2] was < 0.001 µM.
In the case of `Cc1cc(C)nc(NC(=O)Cc2ccc(Oc3ccnc4cc(C(=O)N5CC[C@@H](N(C)C)C5)sc34)cc2)c1` [Example 4, 2-{4-[2-((R)-3-Dimethylamino-pyrrolidine-1-carbonyl)-thieno[3,2-b]pyridin-7-yloxy]-phenyl}-N-(4,6-dimethyl-pyridin-2-yl)-acetamide], the Ki in assay [3] was < 0.001 µM. In addition, the inhibition at 0.05 µM in assay [1] was in the range of 5 to 10%. For the same compound, in assay [2], the concentration for half-maximal inhibition (IC50) was in the range of 0.001 to 0.01 µM.
For `Cc1cc(C)nc(NC(=O)Cc2ccc(Oc3ccnc4cc(C(=O)N(C)CCN(C)C)sc34)cc2)c1` [Example 6, 7-{4-[(4,6-Dimethyl-pyridin-2-ylcarbamoyl)-methyl]-phenoxy}-thieno[3,2-b]pyridine-2-carboxylic acid (2-dimethylamino-ethyl)-methyl-amide] the same measures were < 0.001 µM, 5 to 10% and > 0.01 µM.
On the same counts, the results for `Cc1cc(C)nc(NC(=O)Cc2ccc(Oc3ccnc4cc(C(=O)N(C)C)sc34)cc2)c1` [Example 7, 7-{4-[(4,6-Dimethyl-pyridin-2-ylcarbamoyl)-methyl]-phenoxy}-thieno[3,2-b]pyridine-2-carboxylic acid dimethylamide] are < 0.001 µM, 5 to 10% and < 0.001 µM.
For `CN(C)C(=O)c1cc2nccc(Oc3ccc(CC(=O)Nc4ccc(Cl)cn4)cc3)c2s1` [Example 8, 7-{4-[(5-Chloro-pyridin-2-ylcarbamoyl)-methyl]-phenoxy}-thieno[3,2-b]pyridine-2-carboxylic acid dimethylamide] the same measures were 0.001 to 0.01 µM, 0 to 5% and > 0.01 µM.
`Cc1cc(C)nc(NC(=O)Cc2ccc(Oc3ccnc4cc(-c5nccn5C)sc34)cc2)c1` [Example 9, N-(4,6-Dimethyl-pyridin-2-yl)-2-{4-[2-(1-methyl-1H-imidazol-2-yl)-thieno[3,2-b]pyridin-7-yloxy]-phenyl}-acetamide]: the Ki in assay [3] was < 0.001 µM. Also, the inhibition at 0.05 µM in assay [1] fell in the range of 5 to 10%. For the same compound, the IC50 in assay [2] is < 0.001 µM.
For `Cn1ccnc1-c1cc2nccc(Oc3ccc(CC(=O)Nc4ccc(Cl)cn4)cc3)c2s1` [Example 10, N-(5-Chloro-pyridin-2-yl)-2-{4-[2-(1-methyl-1H-imidazol-2-yl)-thieno[3,2-b]pyridin-7-yloxy]-phenyl}-acetamide], the Ki in assay [3] is < 0.001 µM. For the same compound, the inhibition at 0.05 µM in assay [1] lay within 0 to 5%. The IC50 in assay [2] is < 0.001 µM.
Take `Cc1cc(C)nc(NC(=O)Cc2ccc(Oc3ccnc4cc(C(=O)N5CCC5)sc34)cc2)c1` [Example 22, 2-{4-[2-(Azetidine-1-carbonyl)-thieno[3,2-b]pyridin-7-yloxy]-phenyl}-N-(4,6-dimethyl-pyridin-2-yl)-acetamide]: the inhibition at 0.05 µM in assay [1] lay in the range of 0 to 5%. For the same compound, the IC50 in assay [2] is < 0.001 µM.
As to `O=C(Cc1ccc(Oc2ccnc3cc(C(=O)N4CCC4)sc23)cc1)Nc1ccc2[nH]ncc2c1` [Example 36, 2-{4-[2-(Azetidine-1-carbonyl)-thieno[3,2-b]pyridin-7-yloxy]-phenyl}-N-(1H-indazol-5-yl)-acetamide], the inhibition at 0.05 µM in assay [1] fell in the range of 0 to 5%. The IC50 in assay [2] is > 0.01 µM.
On the same counts, the results for `O=C(Cc1ccc(Oc2ccnc3cc(C(=O)N4CCC4)sc23)cc1)Nc1ccc(N2CCOCC2)nc1` [Example 38, 2{-4-[2-(Azetidine-1-carbonyl)-thieno[3,2-b]pyridin-7-yloxy]-phenyl}-N-(6-morpholin-4-yl-pyridin-3-yl)-acetamide] are 0 to 5% and > 0.01 µM.
Take `Cc1cc(NC(=O)Cc2ccc(Oc3ccnc4cc(C(=O)N5CCC5)sc34)cc2Cl)nn1C` [Example 56, 2-{4-[2-(Azetidine-1-carbonyl)-thieno[3,2-b]pyridin-7-yloxy]-2-chloro-phenyl}-N-(1,5-dimethyl-1H-pyrazol-3-yl)-acetamide]: in assay [1], the inhibition at 0.05 µM was 0 to 5%. Besides, in assay [2], the IC50 is > 0.01 µM.
Take `CNC(=O)C(O)c1ccc(Oc2ccnc3cc(C(=O)N4CC[C@@H](OC)C4)sc23)cc1` (stereo partly drawn) [Example 77, 2-Hydroxy-2-{4-[2-((R)-3-methoxy-pyrrolidine-1-carbonyl)-thieno[3,2-b]pyridin-7-yloxy]-phenyl}-N-methyl-acetamide]: the Ki in assay [3] was > 0.01 µM. In addition, the inhibition at 0.05 µM in assay [1] was in the range of 0 to 5%.
With `CNC(=O)C(=O)c1ccc(Oc2ccnc3cc(C(=O)N4CC[C@@H](OC)C4)sc23)cc1` [Example 78, 2-{4-[2-((R)-3-Methoxy-pyrrolidine-1-carbonyl)-thieno[3,2-b]pyridin-7-yloxy]-phenyl}-N-methyl-2-oxo-acetamide], the Ki in assay [3] was > 0.01 µM. In assay [1], the inhibition at 0.05 µM is > 10%.
For `COC(C(=O)Nc1cc(C)no1)c1ccc(Oc2ccnc3cc(C(=O)N4CCC4)sc23)cc1` (stereo not drawn) [Example 79, 2-{4-[2-(Azetidine-1-carbonyl)-thieno[3,2-b]pyridin-7-yloxy]-phenyl}-2-methoxy-N-(3-methyl-isoxazol-5-yl)-acetamide] the same measures were > 0.01 µM and 0 to 5%.
For the compound `Cc1cc(NC(=O)C(O)c2ccc(Oc3ccnc4cc(C(=O)N5CCC5)sc34)cc2)on1` (stereo not drawn) [Example 80, 2-{4-[2-(Azetidine-1-carbonyl)-thieno[3,2-b]pyridin-7-yloxy]-phenyl}-2-hydroxy-N-(3-methyl-isoxazol-5-yl)-acetamide], the Ki in assay [3] was > 0.01 µM. In addition, the inhibition at 0.05 µM in assay [1] was 5 to 10%.
For `CCCCNC(=O)C(O)c1ccc(Oc2ccnc3cc(C(=O)N4CCC4)sc23)cc1` (stereo not drawn) [Example 82, 2-{4-[2-(Azetidine-1-carbonyl)-thieno[3,2-b]pyridin-7-yloxy]-phenyl}-N-butyl-2-hydroxy-acetamide], the Ki in assay [3] was > 0.01 µM. Besides, the inhibition at 0.05 µM in assay [1] lay within 0 to 5%.
`COC(C(=O)Nc1ccccn1)c1ccc(Oc2ccnc3cc(C(=O)N4CCC4)sc23)cc1` (stereo not drawn) [Example 83, 2-{4-[2-(Azetidine-1-carbonyl)-thieno[3,2-b]pyridin-7-yloxy]-phenyl}-2-methoxy-N-pyridin-2-yl-acetamide]: the Ki in assay [3] is > 0.01 µM. Further, the inhibition at 0.05 µM in assay [1] fell in the range of 5 to 10%.
On to `O=C(Nc1ccccn1)C(O)c1ccc(Oc2ccnc3cc(C(=O)N4CCC4)sc23)cc1` (stereo not drawn) [Example 84, 2-{4-[2-(Azetidine-1-carbonyl)-thieno[3,2-b]pyridin-7-yloxy]-phenyl}-2-hydroxy-N-pyridin-2-yl-acetamide], for which, in assay [3], the Ki was > 0.01 µM. In assay [1], the inhibition at 0.05 µM lay within 5 to 10%.
